# Test results taken from patent US20240148821A1, “PHARMACEUTICAL USE OF CYCLIC PEPTIDE COMPOUND” (CHUGAI SEIYAKU KABUSHIKI KAISHA, priority 2021, published 2024).
# Numbered stars: 1 amine (or outer) side, 2 acyl side, 3 side chain; on linkers, the order of the positions; unused ones are H or OH. Bridge positions count the residues as written; N and C are the ends. Square brackets hold non-standard residues; d marks the D form. Peptide text beside a SMILES is read from it. * marks the point of attachment. hPhe(3-Cl-4-CF3) = N[C@@H](CCc1ccc(C(F)(F)F)c(Cl)c1)C(=O)O; NMePhe(4-Cl) = CN[C@@H](Cc1ccc(Cl)cc1)C(=O)O; NMePhe(4-Me) = CN[C@@H](Cc1ccc(C)cc1)C(=O)O; X128 = O=C([C@H](Cc1cccc(F)c1F)N[*:1])[*:2]; NMePhe(4-F) = CN[C@@H](Cc1ccc(F)cc1)C(=O)O; X72 = O=C([C@@H]1Cc2ccccc2N1[*:1])[*:2]; Phe(3-I) = N[C@@H](Cc1cccc(I)c1)C(=O)O; Phe(4-F) = N[C@@H](Cc1ccc(F)cc1)C(=O)O; NMe4Pal = CN[C@@H](Cc1ccncc1)C(=O)O; NMeY = CN[C@@H](Cc1ccc(O)cc1)C(=O)O; NMeCha = CN[C@@H](CC1CCCCC1)C(=O)O; NMehLeu = CN[C@@H](CCC(C)C)C(=O)O; NMeChg = CN[C@H](C(=O)O)C1CCCCC1; NMeI = CC[C@H](C)[C@H](NC)C(=O)O; NMeD = CN[C@@H](CC(=O)O)C(=O)O; NMeL = CN[C@@H](CC(C)C)C(=O)O; NMeV = CN[C@H](C(=O)O)C(C)C; d(β3hA) = C[C@@H](N)CC(=O)O; NMeAbu = CC[C@H](NC)C(=O)O; NMeS = CN[C@@H](CO)C(=O)O; NMeA = CN[C@@H](C)C(=O)O; NMeAib = CNC(C)(C)C(=O)O; Nle = CCCC[C@H](N)C(=O)O; Piperidide = C1CCN(*)CC1; Pra = C#CC[C@H](N)C(=O)O; Ac5c = NC1(C(=O)O)CCCC1; Aze = O=C(O)[C@@H]1CCN1; Cyclobutyl = C1CC(*)C1; βAla = NCCC(=O)O; Sar = CNCC(=O)O
# Tested on: Human pancreatic cancer cell line AsPC-1 (G12D mutation Kras)
# Experiment: AsPC-1 cell growth inhibition (AsPC-1 CGI)
# Assay type: cell-based
# Settings: read-out: AsPC-1 cell growth inhibition, 50% growth inhibitory concentration (IC50 value); 96 hours, CellTiter-Glo, values classified in ranges
# Description: Test compounds were serially dilated with dimethyl sulfoxide, and 200 nL was then dispensed to a U-bottom 96-well plate using Labcyte Echo. […] The cell suspension was dispensed to a. plate containing a test compound at 100 μL per well and incubated at 37° C. in a 5% carbon dioxide gas incubator. 96 hours later, 80 μL of CellTiter-Glo (Promega) was added to each well and fluorescence was measured.
row,SMILES,IC50
1,CC[C@H](C)[C@@H]1NC(=O)[C@H](CC(C)C)N(C)C(=O)C[C@@H](C(=O)N2CCCCC2)N(C)C(=O)[C@H](COC2CCC2)N(C)C(=O)C2(CCCC2)NC(=O)[C@@H]2CCCN2C(=O)[C@H](CCc2ccc(C(F)(F)F)c(Cl)c2)NC(=O)CN(C)C(=O)[C@H](CC2CCCCC2)N(C)C(=O)CN(C)C(=O)CN(C)C1=O [Compound 585] ([NMeL]I[Sar][Sar][NMeCha][Sar][hPhe(3-Cl-4-CF3)]P[Ac5c][NMeS](Cyclobutyl)[NMeD]-Piperidide; lactam N-11),> 500 nM
2,CC[C@H](C)[C@@H]1NC(=O)[C@H](CC(C)C)N(C)C(=O)C[C@@H](C(=O)N2CCCCC2)N(C)C(=O)[C@H](C2CCCCC2)N(C)C(=O)C2(CCCC2)NC(=O)[C@@H]2Cc3ccccc3N2C(=O)[C@H](CCc2ccc(C(F)(F)F)c(Cl)c2)NC(=O)CN(C)C(=O)[C@H](CC2CCCCC2)N(C)C(=O)CN(C)C(=O)CN(C)C1=O [Compound 514] ([NMeL]I[Sar][Sar][NMeCha][Sar][hPhe(3-Cl-4-CF3)][X72][Ac5c][NMeChg][NMeD]-Piperidide; lactam N-11),> 500 nM
3,CC[C@H](C)[C@@H]1NC(=O)[C@H](CC(C)C)N(C)C(=O)C[C@@H](C)NC(=O)[C@H](CCC(C)C)N(C)C(=O)C2(CCCC2)NC(=O)[C@@H]2CCCN2C(=O)[C@H](CCc2ccc(C(F)(F)F)c(Cl)c2)NC(=O)CN(C)C(=O)[C@H](CC2CCCCC2)N(C)C(=O)CN(C)C(=O)CN(C)C1=O [Compound 586] (cyclo([Ac5c][NMehLeu][d(β3hA)][NMeL]I[Sar][Sar][NMeCha][Sar][hPhe(3-Cl-4-CF3)]P)),> 500 nM
4,CCCC[C@@H]1NC(=O)[C@H](Cc2ccc(F)cc2)NC(=O)CN(C)C(=O)[C@H](Cc2ccc(Cl)cc2)N(C)C(=O)CN(C)C(=O)CN(C)C(=O)[C@H]([C@@H](C)CC)NC(=O)[C@H](CC(C)C)N(C)C(=O)C[C@@H](C(=O)N2CCCCC2)N(C)C(=O)[C@H](CC(C)C)NC(=O)C(C)(C)N(C)C1=O [Compound 1305] ([NMeL]I[Sar][Sar][NMePhe(4-Cl)][Sar][Phe(4-F)][Nle][NMeAib]L[NMeD]-Piperidide; lactam N-11),> 500 nM
5,CC[C@H](C)[C@@H]1NC(=O)[C@H](CC(C)C)N(C)C(=O)C[C@@H](C(=O)N(C)C)N(C)C(=O)[C@H]([C@@H](C)CC)N(C)C(=O)[C@H](C(C)C)NC(=O)[C@H](Cc2ccncc2)N(C)C(=O)[C@H](CCc2ccc(C(F)(F)F)c(Cl)c2)NC(=O)CN(C)C(=O)[C@H](Cc2ccc(C)cc2)N(C)C(=O)[C@@H]2CCN2C(=O)[C@H](C)N(C)C1=O [Compound 1897] ([NMeL]I[NMeA][Aze][NMePhe(4-Me)][Sar][hPhe(3-Cl-4-CF3)][NMe4Pal]V[NMeI][NMeD]-NMe2; lactam N-11),> 500 nM
6,C#CC[C@@H]1NC(=O)[C@H](Cc2cccc(I)c2)NC(=O)CN(C)C(=O)[C@H](Cc2ccc(OC)cc2)N(C)C(=O)CN(C)C(=O)CN(C)C(=O)[C@H]([C@@H](C)CC)NC(=O)[C@H](CC(C)C)N(C)C(=O)C[C@@H](C(=O)N2CCCCC2)N(C)C(=O)[C@H](CC(C)C)NC(=O)C(C)(C)N(C)C1=O [Compound 1169] ([NMeL]I[Sar][Sar][NMeY](Me)[Sar][Phe(3-I)][Pra][NMeAib]L[NMeD]-Piperidide; lactam N-11),> 500 nM
7,CC(C)C[C@@H]1NC(=O)[C@H](CC(C)C)N(C)C(=O)C[C@@H](C(=O)N2CCCCC2)N(C)C(=O)[C@H](C(C)C)N(C)C(=O)C2(CCCC2)NC(=O)[C@@H]2CCCN2C(=O)[C@H](CCc2ccc(C(F)(F)F)c(Cl)c2)NC(=O)CN(C)C(=O)[C@H](CC2CCCCC2)N(C)C(=O)[C@@H]2CCN2C(=O)[C@H](C)N(C)C1=O [Compound 1754] ([NMeL]L[NMeA][Aze][NMeCha][Sar][hPhe(3-Cl-4-CF3)]P[Ac5c][NMeV][NMeD]-Piperidide; lactam N-11),> 500 nM
8,CC[C@H](C)[C@@H]1NC(=O)CCNC(=O)[C@H](Cc2ccc(F)cc2)N(C)C(=O)[C@H](C2CCCCC2)N(C)C(=O)C2(CCCC2)NC(=O)[C@@H]2CCCN2C(=O)[C@H](CCc2ccc(C(F)(F)F)c(Cl)c2)NC(=O)CN(C)C(=O)[C@H](CC2CCCCC2)N(C)C(=O)CN(C)C(=O)CN(C)C1=O [Compound 528] (cyclo([Ac5c][NMeChg][NMePhe(4-F)][βAla]I[Sar][Sar][NMeCha][Sar][hPhe(3-Cl-4-CF3)]P)),> 500 nM
9,CCCC[C@@H]1NC(=O)[C@H](Cc2cccc(F)c2F)NC(=O)CN(C)C(=O)[C@H](Cc2ccc(OC)cc2)N(C)C(=O)[C@@H]2CCN2C(=O)[C@H](C)N(C)C(=O)[C@H]([C@@H](C)CC)NC(=O)[C@H](CC)N(C)C(=O)C[C@@H](C(=O)N2CCCCC2)N(C)C(=O)[C@H](CC(C)C)NC(=O)C(C)(C)N(C)C1=O [Compound 1256] ([NMeAbu]I[NMeA][Aze][NMeY](Me)[Sar][X128][Nle][NMeAib]L[NMeD]-Piperidide; lactam N-11),> 500 nM
